Results as given in patent US20090130188A9, “Acrylic pressure sensitive adhesives” (National Starch and Chemical Investment Holding Company, priority 2005, published 2009).
Read-outs that look alike come from different tables or passages of the source.

Assays:
[1] = for state of ketoprofen in dried adhesive film: dried 30 minutes at 60° C.
[2] = Ketoprofen added to adhesive solutions, mixed overnight, dissolved vs dispersed; type: physicochemical; conditions: 15% on a solids basis
[3] = Cholesteryl dodecanoate added to adhesive solutions, mixed overnight at room temperature; type: physicochemical; conditions: 1% on a solids basis
Method: Cholesteryl dodecanoate, a model for a highly lipophilic drug, was added at 1% on a solids basis to the solutions of Example 7 and 8. These were then mixed overnight at room temperature.

[4] = film from conventional adhesive solution (Comparative Example 2)

Row | SMILES | enthalpy of fusion by DSC [1, 4] | state of ketoprofen in dried adhesive film [1, 4] | state of ketoprofen in dried adhesive film ([1]; film from cyclohexane adhesive solution (Example 1)) | dissolution of ketoprofen in adhesive solution ([2]; adhesive solution of Example 1 (cyclohexane, δ 16.8), tube B) | dissolution of ketoprofen in adhesive solution ([2]; adhesive solution of Example 2 (δ 19.0), tube A) | dissolution of model active in adhesive solution ([3]; solution of Example 7 (ethanol)) | dissolution of model active in adhesive solution ([3]; solution of Example 8 (δ 19.4))
1 | CC(C(=O)O)c1cccc(C(=O)c2ccccc2)c1 (stereo not shown) [ketoprofen] | zero | no visible crystals | undissolved crystals | most of the ketoprofen remained as a dispersed solid | completely dissolved | – | –
2 | CCCCCCCCCCCC(=O)O[C@H]1CC[C@@]2(C)C(=CC[C@H]3[C@@H]4CC[C@H]([C@H](C)CCCC(C)C)[C@@]4(C)CC[C@@H]32)C1 [Cholesteryl dodecanoate] | – | – | – | – | – | large quantity of undissolved model active | completely soluble
